Structures can show the parent of a compound that is named as a salt. Residues, ends and D or L forms follow the SMILES beside them. *: point of attachment. Cbz = O=C(OCc1ccccc1)*; CH2F = FC*
Legend:
[1] = tested on: doxorubicin-resistant leukaemia cells CEM^DoxoR; experiment: Western blot analysis in CEM^DoxoR cells; type: cell-based, human; settings: 20, 15 μM methadone, 24 h and 48 h
[2] = tested on: CD95-resistant leukaemia cells CEM^CD95R; experiment: Western blot analysis in CEM^CD95R cells; type: cell-based, human; settings: 20, 15 μM methadone, 24 h and 48 h
[3] = tested on: HL-60 leukaemia cells; experiment: Western blot analysis in HL-60 cells; type: cell-based, human; settings: 20, 15 μM methadone, 24 h and 48 h
[4] = tested on: human lymphoblastic leukaemia T-cell line CEM; experiment: Induction of apoptosis in CEM cells, flow cytometry (hypodiploid DNA); type: cell-based; settings: 30, 20, 15, 10 μM methadone, 24 h and 48 h
[5] = tested on: doxorubicin-resistant CEM leukaemia cells (CEM^DoxoR); experiment: Induction of apoptosis in doxorubicin-resistant CEM cells; type: cell-based, human; settings: 30, 20, 15 μM methadone, 24 h and 48 h
[6] = tested on: CD95-resistant leukaemia cells CEM^CD95R; experiment: Induction of apoptosis in CD95-resistant CEM cells; type: cell-based, human; settings: 30, 20, 15 μM methadone, 24 h and 48 h
[7] = tested on: leukaemia cells; experiment: Western blot analysis in leukaemia cells (caspase-8, Bax, CD95); type: cell-based, human
Excerpt: Western blot analyses were done as described (Friesen et al. 2004, Friesen et al. 2003). Immunodetection of PARP, caspase-3, caspase-9, caspase-8, XIAP, CD95, CD95-L, Bax, Bcl-xL and β-actin was done using rabbit anti-PARP polyclonal antibody (1:5000, Roche), mouse-anti-caspase-3 monoclonal antibody (1:1000, Cell-Signalling), mouse-anti-caspase-8 monoclonal antibody (1:1000, Cell-Signalling), rabbit- anti-active-caspase-9 polyclonal antibody (1:1000, Cell-Signalling), mouse-anti-XIAP monoclonal antibody (1:1000, Transduction-Laboratories, Lexington, Ky.), mouse-anti-Fas (anti-CD95) monoclonal antibody (1:1000, Transduction-Laboratories), mouse-anti-Fas ligand (anti-CD95-ligand) monoclonal antibody (1:250, BD, Pharmingen), rabbit-anti-Bax polyclonal antibody (1:250, Oncogene, Cambridge), rabbit-anti-Bcl-XS/L. polyclonal antibody (1:1000, Santa-Cruz-Biotechnology, Santa-Cruz, Calif.), rabbit-anti-p21 polyclonal antibody (1:1000, Santa-Cruz), and mouse anti-β-actin monoclonal antibody (Sigma). Peroxidase-conjugated goat-anti-mouse IgG or peroxidase-conjugated goat-anti-rabbit IgG (1:5000, Santa-Cruz) as secondary antibody were used for the enhanced chemoluminescence system (ECL, Amersham-Pharmacia, Freiburg, Germany). Equal protein loading was controlled by β-actin detection.

[8] = tested on: human glioblastoma cell line A172; experiment: Induction of apoptosis in A172 glioblastoma cells, flow cytometry; type: cell-based
[9] = tested on: human myeloid leukaemia cell line HL-60; experiment: Induction of apoptosis in HL-60 cells, flow cytometry (hypodiploid DNA); type: cell-based; settings: 30, 20, 15, 10 μM methadone, 24 h and 48 h
[10] = tested on: B-ALL (B-Cell lymphatic leukaemia) cells; experiment: Induction of apoptosis in B-ALL cells isolated from patients ex vivo; type: cell-based, human; settings: B-ALL patient cells; 10 μM methadone; 72 h
[11] = tested on: CEM leukaemia cells; experiment: Western blot analysis in CEM cells; type: cell-based, human; settings: 20, 15 μM methadone, 24 h and 48 h
[12] = tested on: HL-60 cells; experiment: Inhibition of methadone induced apoptosis by zVAD.fmk in HL-60 cells; type: cell-based, human; settings: 50 μM zVAD.fmk, preincubated 1 h before methadone
[13] = tested on: CEM cells; experiment: Inhibition of methadone induced apoptosis by zVAD.fmk in CEM cells; type: cell-based, human; settings: 50 μM zVAD.fmk, preincubated 1 h before methadone
[14] = tested on: Human acute myeloid leukaemia HL-60 cell line; experiment: Induction of apoptosis in HL-60 cell line (5000 cells/100 μl), long incubation, flow cytometry; type: cell-based
[15] = leukaemia cells after methadone treatment
[16] = 1 μg/mL methadone in addition of 0.1 μg/mL doxorubicin, 72 h

CCC(=O)C(CC(C)N(C)C)(c1ccccc1)c1ccccc1 (racemic) [methadone, D, L-methadone hydrochloride]
down regulation of Bcl-xL [1]: strong down regulation | down regulation of XIAP [1]: strong down regulation | down regulation of Bcl-xL [2]: strong down regulation | down regulation of XIAP [2]: strong down regulation | down regulation of Bcl-xL [3]: strong down regulation | down regulation of XIAP [3]: strong down regulation | induction of apoptosis [4]: strong induction of apoptosis | induction of apoptosis [5]: strong induction of apoptosis | induction of apoptosis [6]: strong induction of apoptosis | Activation of caspase-8 [7, 15]: not found | Up regulation of Bax [7, 15]: not found | up regulation of death-inducing ligands and death-inducing receptors such as CD95 ([7]; leukaemia cells after methadone treatment (data not shown)): not found | apoptotic effect of the combination with doxorubicin [8, 16]: strong apoptotic effect | synergy with doxorubicin [8, 16]: synergistic effects | dead cells (specific cell death) ([8]; 20 μg/mL methadone, 120 h): more than 20% | dead cells (specific cell death) ([8]; 20 μg/mL methadone, 168 h): more than 80% | dead cells (specific cell death) ([8]; 30 μg/mL methadone, 120 h): more than 85% | dead cells (specific cell death) ([8]; 30 μg/mL methadone, 168 h): ~100% | induction of apoptosis [9]: strong induction of apoptosis | apoptosis, cells [10]: over 80% | down regulation of Bcl-xL [11]: strong down regulation | down regulation of XIAP [11]: strong down regulation

CC(C)[C@H](NC(=O)OCc1ccccc1)C(=O)N[C@@H](C)C(=O)N[C@@H](CC(=O)O)C(=O)CF [zVAD.fmk, benzoyl carbonyl-Val-Ala-Asp-fluoromethyl ketone] (Cbz-Val-Ala-Asp-CH2F)
inhibition of methadone-induced apoptosis [12]: almost completely inhibited | inhibition of methadone-induced apoptosis [13]: almost completely inhibited

CN1CC[C@]23c4c5ccc(O)c4O[C@H]2[C@@H](O)C=C[C@H]3[C@H]1C5 [morphine, Morphine]
apoptosis, cells ([14]; HL-60, first study, 40 μg/mL morphine, 144 h): 40% | apoptosis, cells ([14]; HL-60, second study, 1 μg/mL morphine, 168 h): more than 50% | apoptosis, cells ([14]; HL-60, third study, 1 μg/mL morphine in combination with 0.001 μg/mL doxorubicin, 168 h): 50%
